# Experimental data: paper PMC6277434, “Discovery of a potent HMG-CoA reductase degrader that eliminates statin-induced reductase accumulation and lowers cholesterol” (Nature Communications, 2018)
# Tested on: Hmgcr mRNA
# Assay: RT-qPCR of Hmgcr mRNA in SRD-13A cells
# Format: cell-based, Chinese hamster
# Design: HMGCR mRNA level, mean: scale not given here
# Settings: for HMGCR mRNA level, mean: SRD-13A, 16 h
# Experimental: Cells were treated as described in corresponding figure legends, then total RNA was extracted from cells or mouse livers using TRI Reagent (T9424, Sigma-Aldrich). Equal amounts of RNA from cells or mice receiving the same treatment were pooled were used for cDNA synthesis with oligo dT and reverse transcriptase MLV (Promega). Gene expression was analyzed by quantitative real-time PCR on a Stratagene Mx30005PTM Q-PCR Systems. The primers used were listed in Supplementary Tables 2–4.
compound,measurement,setting,value
"CC[C@H](C)C(=O)O[C@H]1C[C@@H](C)C=C2C=C[C@H](C)[C@H](CC[C@@H]3C[C@@H](O)CC(=O)O3)[C@H]21 [Lovastatin, lovastatin]",change in the amounts of Hmgcr mRNA,"SRD-13A cells, lovastatin 16 h",no change
same,"HMGCR mRNA level, mean",lovastatin 0.001 uM,1
same,"HMGCR mRNA level, mean",lovastatin 0.003 uM,1.03
same,"HMGCR mRNA level, mean",lovastatin 0.01 uM,1.0471
same,"HMGCR mRNA level, mean",lovastatin 0.03 uM,1.185
same,"HMGCR mRNA level, mean",lovastatin 0.1 uM,1.052
same,"HMGCR mRNA level, mean",lovastatin 0.3 uM,0.9958
same,"HMGCR mRNA level, mean",lovastatin 1 uM,1.197
same,"HMGCR mRNA level, mean",lovastatin 3 uM,1.009
same,"HMGCR mRNA level, mean",lovastatin 10 uM,1.04
